Laboratory results as given in paper PMC5989455, “Beta-defensin derived cationic antimicrobial peptides with potent killing activity against gram negative and gram positive bacteria” (BMC Microbiology, 2018).
Bridges are numbered along the chain shown (N, C = ends). Where no end group is shown, it is not given here.

How the values were obtained:
S. aureus (ATCC 29213) = type: cell-based, Staphylococcus aureus; conditions: ATCC 29213, 24 h
Experimental: (§1) Pseudomonas aeruginosa (P. aeruginosa, ATCC 27853) and Staphylococcus aureus (S. aureus, ATCC 29213) were used to evaluate the novel CAMPs’ antimicrobial activity, salt- and protease-resistance, and membrane permeability. Ten multiple-drug resistant P. aeruginosa and ten methicillin-resistant S. pseudintermedius (MRSP) clinical isolates (Table 2) were used to evaluate the antimicrobial efficacy of CAMPs. The clinical isolates were cultured from diagnostic specimens by the microbiology staff at the University of Missouri Veterinary Medical Diagnostic Laboratory as part of standard service. The isolates were donated to the present project with appropriate permission. All bacterial strains were maintained and grown in Luria-Bertani broth or agar (LB, BD Difco™) at 37 °C as described previously.
(§2) Minimum inhibitory concentrations (MICs) were determined primarily based on the guidelines of the Clinical and Laboratory Standards Institute (CLSI). The Muller Hinton (MH) II broth used in MIC assay contained 20–25 mg/L of calcium and 10–12.5 mg/L of magnesium. The procedures were described in previous studies. In brief, two-fold serially diluted CAMPs (2 to 256 μg/ml) were mixed with appropriate bacterial strains at a final concentration of 5 × 10^5 CFU/ml in a 96-well microtiter plate (Nunc™, Thermo Fisher Scientific). Following incubation at 37 °C for 24 h, MIC was recorded. All assays were conducted in triplicate.

mouse red blood cells = type: cell-based
Experimental: The hemolytic assay was performed as described previously. Briefly, mouse red blood cells (RBCs, Innovative Research, Novi, MI) were washed three times with phosphate-buffered saline (PBS, pH 7.4), centrifuged at 1000×g for 10 min, and resuspended in PBS to 10% (v/v). The RBCs were treated with CAMPs at various concentrations ranging from 4 to 512 μg/ml (2-fold serial dilutions) at 37 °C for 1 h. PBS and 0.2% Triton X-100 were used as negative and positive controls, respectively. The supernatant was transferred to a 96-well flat-bottomed polystyrene plate (Thermo Fisher Scientific), and the amount of hemoglobin released into the supernatant was determined by measuring the absorbance with a spectrophotometer at 540 nm. Hemolytic activity was expressed as the percentage of hemolysis and calculated using the following equation: hemolysis (%) = (As-A0)/(A100-A0) × 100, where As is the absorbance of the sample, A100 is the absorbance of completely lysed RBCs in 0.2% Triton X-100, and A0 is the absorbance in the complete absence of hemolysis (PBS treatment). The assay was performed in triplicate. The therapeutic index (T.I.) was calculated according to a previously published formula: T.I. = MHC / MICGM [30]. […] The MICGM was the minimum inhibitory concentration of the peptide concentrations against bacterial growth after the geometric mean was calculated. […]

P. aeruginosa = type: cell-based, Pseudomonas aeruginosa
Experimental: as §1
as §2, with “All assays were conducted in triplicate.” left out

[1] = test system: Gram-positive bacteria (S. aureus, S. pseudintermedius); test: Average MIC for Gram-positive bacteria; type: cell-based, Staphylococcus spp.; conditions: average over S. aureus ATCC 29213 and 10 MRSP strains (Gram-positive), ± SD
Experimental: as §2
The hemolytic assay was performed as described previously. […] The supernatant was transferred to a 96-well flat-bottomed polystyrene plate (Thermo Fisher Scientific), and the amount of hemoglobin released into the supernatant was determined by measuring the absorbance with a spectrophotometer at 540 nm. Hemolytic activity was expressed as the percentage of hemolysis and calculated using the following equation: hemolysis (%) = (As-A0)/(A100-A0) × 100, where As is the absorbance of the sample, A100 is the absorbance of completely lysed RBCs in 0.2% Triton X-100, and A0 is the absorbance in the complete absence of hemolysis (PBS treatment). […] The therapeutic index (T.I.) was calculated according to a previously published formula: T.I. = MHC / MICGM [30]. […]

Substance	MIC (S. aureus (ATCC 29213)) [µg/mL]	also measured
Ac-LRRLKPLIRPWLRPLRRWWW-NH2 [CAMP-A]	32	concentration exhibiting hemolytic and cytotoxic activities (mouse red blood cells): ≥ 128 µg/mL
Ac-PIHRRIPPRWPRLKRRW-NH2 [CAMP-t2]	64	
Ac-RKFLRRRGEVAHFSQKSLGLYCWWW-NH2 [CAMP-t1]	64	
Ac-RRRWRKRRWWW-NH2 [CAMP-B]	32	
SPIHACRYQRGVCIPGPCRWPYYRVGSCGSGLKSCCVRNRWA (disulfide 6-35, 13-28, 18-36 (inferred)) [AvBD-6, reference compound]		MIC (P. aeruginosa; 24 h): > 256 µg/mL; MICAverage G- (P. aeruginosa; average over 11 P. aeruginosa strains (Gram-negative), ± SD): > 256 µg/mL; MICAverage G+ [1]: ≥256 µg/mL
